Measured values reported in patent US20250320496A1, “MODULATION OF ABCB11 GENE TRANSCRIPTION USING ANTISENSE OLIGONUCLEOTIDES TARGETING REGULATORY RNAS” (CAMP4 Therapeutics Corporation, priority 2022, published 2025).
Strand notation (5' to 3'): a small letter for the sugar, then the base; units joined by * are phosphorothioate-linked, units joined directly phosphodiester-linked; [ ] holds rarer units or linkages, { } end groups; capitals alone tell only the bases. e = 2'-O-(2-methoxyethyl) (MOE); l = locked nucleic acid (LNA); [5mC] = 5-methylcytosine; d = 2'-deoxy (DNA)

Tested on: human ABCB11 mRNA
Test: ASO treatment of primary human hepatocytes (PHH), ABCB11 mRNA by RT-qPCR normalized to B2M
Type: cell-based
Conditions: for ABCB11 mRNA FC (5 μM ASO vs. UNT) / ABCB11 FC mRNA (5 μM ASO vs. untreated): primary human hepatocytes; for ABCB11 mRNA FC (5 μM ASO vs. UNT): normalized to untreated PHHs (UNT); for ABCB11 FC mRNA (5 μM ASO vs. untreated): 5 μM ASO with PO-modifications, normalized to untreated hepatocytes
Method: Primary human hepatocytes (PHH) were thawed using Lonza Human Cryopreserved Hepatocyte Thawing Medium and plated in 96-well collagen-coated plates (5.5-6.0×10^4 cells per well). Four hours later, the media was replaced with sterile-filtered QualGro™ Hepatocyte Culture Medium (BioIVT) containing antibiotic supplement, 0.3 mg/ml Matrigel® matrix (Corning®), and ASO at the desired concentration (e.g., 1.25 μM, 2.5 μM, 5 μM, or 10 μM). After 72 hrs., cells were harvested by aspirating media, washing once with phosphate-buffered saline (PBS), and lysed with 150 μl of Buffer RLT lysis buffer (Qiagen®). Plates were frozen at-80° C. during cell lysis. After thawing, total RNA was isolated using the Qiagen RNEasy kit as instructed by manufacturer. cDNA (random-primed) was synthesized from 10 μl of RNA using the LifeTech High Capacity cDNA Reverse Transcription kit. 2 μl of cDNA was used for reverse transcription-quantitative PCR (RT-qPCR) analyses using standard Taqman” reagents from Applied Biosystems™ to measure ABCB11 and CYP7A1 gene expression. Gene expression data was normalized to the housekeeper gene, beta-2-microglobulin (B2M).
To assess the ability of ASOs targeting ABCB11 regRNAs to modulate the expression of human ABCB11, 195 ASOs targeting the human ABCB11 regRNAs were synthesized. These initial ASOs were screened in PHHs at 5 μM to determine their efficacy in increasing human ABCB11 mRNA using quantitative PCR. This initial screen identified 10 ASOs that induced increased expression of ABCB11 mRNA by more than 1.5-fold (as compared to untreated PHHs).

Row | Substance | ABCB11 mRNA FC (5 μM ASO vs. UNT) [fold change] | other results
1 | CO-4016 (antisense eT*eT*eT*eT*eA*eA*e[5mC]*eT*eT*eG*eG*e[5mC]*eT*eT*eT*eG*eT*eG*eA*eA) | 1.294 | 
2 | CO-7189: derivative ASO with additional chemical modifications based on parent ASO CO-4535 (antisense eT*eG*lG*e[5mC]*lG*eT*lT*eA*lT*eT*lA*eA*lT*eT*l[5mC]*eT*lA*e[5mC]*eA*eG) | 1.487 | 
3 | CO-7167 (antisense eG*eG*e[5mC]*eG*eT*eT*eA*eT*eT*eA*eA*eT*eT*e[5mC]*eT*eA*e[5mC]*eA*eG*eA) | 1.403 | 
4 | CO-4034 (antisense e[5mC]*eG*eA*eG*eG*eT*eT*eG*eG*eA*eA*eA*eA*eG*eG*eT*eT*eG*eT*eG) | 0.792 | 
5 | CO-7046 (antisense eT*eG*eT*eG*eT*eT*eT*eT*eG*e[5mC]*eT*eT*eG*eG*eT*e[5mC]*eA*eA*eG*eA) | 1.243 | 
6 | CO-7157 (antisense eG*eT*eG*eG*eA*dG*d[5mC]*dA*dA*dA*d[5mC]*dT*dA*dG*dG*e[5mC]*eA*e[5mC]*eT*eG) | 1.195 | 
7 | CO-4499 (antisense eA*eA*eG*eG*eA*eA*eG*eG*eT*e[5mC]*eT*eA*eG*e[5mC]*eG*eG*eA*eG*eG*eT) | 1.202 | 
8 | CO-6993 (antisense eT*eG*eG*eA*eT*lG*eT*eA*eG*eA*lT*eG*eA*eA*eT*lG*eG*e[5mC]*eA*eA) | 1.209 | 
9 | CO-4046 (antisense eG*eG*eG*eAeA*eA*eG*eT*eT*eT*eA*eA*eA*eGeGeT*eA*eT*eT*eT) | 1.035 | 
10 | CO-7007 (antisense eG*eT*eG*eG*eA*dT*dG*dT*eA*dG*dA*dT*dG*eA*dA*dT*dG*eG*e[5mC]*eA*eA*eG) | 0.963 | 
11 | CO-11211 (antisense eG*eT*lG*eGlAeGl[5mC]*eA*lA*eA*l[5mC]*eT*lA*eGlGe[5mC]lA*e[5mC]*eT*eG) |  | ABCB11 FC mRNA (5 μM ASO vs. untreated): 2.80 fold change
12 | CO-7003 (antisense eG*eT*eG*eA*eG*lG*e[5mC]*eA*eT*e[5mC]*lA*eG*eG*eT*eA*lA*eG*eT*eT*e[5mC]) | 1.066 | 
13 | CO-11236 (antisense eG*eT*eGeGlAeGe[5mC]*eA*eA*lA*e[5mC]*eT*eA*eGlGe[5mC]eAe[5mC]*eT*eG) |  | ABCB11 FC mRNA (5 μM ASO vs. untreated): 1.60 fold change
14 | CO-7025 (antisense eA*eG*eT*eG*eA*eG*e[5mC]*eT*eT*eA*eT*e[5mC]*eT*eG*eG*eA*eA*eA*eA*eT) | 1.259 | 
15 | CO-11207 (antisense eT*eG*eTeT*eT*eTeG*e[5mC]*eTeT*eG*eGeT*e[5mC]*eAeA*eG*eAeG*eG) |  | ABCB11 FC mRNA (5 μM ASO vs. untreated): 0.91 fold change
16 | CO-7205 (eT*eT*eG*eG*e[5mC]*dG*dT*dT*eA*dT*dT*dA*dA*eT*dT*d[5mC]*dT*eA*e[5mC]*eA*eG*eA; antisense) | 1.278 | 
17 | CO-7159 (antisense eG*eG*eA*eG*eG*eT*eG*eG*eA*eG*e[5mC]*eA*eA*eA*e[5mC]*eT*eA*eG*eG*e[5mC]) | 1.326 | 
18 | CO-7103 (eT*eA*eT*e[5mC]*eT*eG*eG*eA*eA*eA*eA*eT*eA*eA*eT*eG*e[5mC]*e[5mC]*eT*eT*eT*e[5mC]*eT*eA; antisense) | 1.006 | 
19 | CO-4035 (antisense eG*eT*eT*e[5mC]*eA*eG*eT*eG*e[5mC]*eT*eT*eT*eA*eG*eA*eA*eT*eG*eA*eT) | 0.926 | 
20 | CO-7112 (eT*eA*e[5mC]*eA*eT*dT*dT*eA*dG*dA*eG*dA*d[5mC]*eA*dA*dA*eG*dA*dA*eT*e[5mC]*eG*e[5mC]*eT; antisense) | 0.98 | 
21 | CO-12748 (antisense eG*eTeGeAeGeGe[5mC]*eA*eT*e[5mC]*eA*eG*eG*eTeAeAeGeTeT*e[5mC]) |  | ABCB11 FC mRNA (5 μM ASO vs. untreated): 0.91 fold change
22 | CO-7053 (antisense e[5mC]*e[5mC]*eT*e[5mC]*eA*e[5mC]*e[5mC]*eT*eT*eG*eG*eT*eT*e[5mC]*e[5mC]*e[5mC]*e[5mC]*e[5mC]*eT*eG) | 1.145 | 
23 | CO-11202: ASO containing PO-modifications identified in the Table 13 screen in PHHs (antisense eT*eG*eTeT*eT*eT*eG*e[5mC]eT*eT*eG*eG*eTe[5mC]*eA*eA*eG*eAeG*eG) |  | ABCB11 mRNA fold change (PHHs, 5 μM dose (FIG. 14)): ~2 fold; ABCB11 mRNA fold change (PHHs, 10 μM dose (FIG. 14)): ~3.5 fold; ABCB11 mRNA expression, dose response (PHHs, comparison study with OCA, elafibranor, fenofibrate (FIG. 14)): dose-dependent increase; ABCB11 FC mRNA (5 μM ASO vs. untreated): 1.50 fold change

Row | Substance | ABCB11 mRNA FC (5 μM ASO vs. UNT) [fold change] | other results
24 | CO-7018 (antisense eA*eA*eG*eT*eG*eA*eG*eG*e[5mC]*eA*eT*e[5mC]*eA*eG*eG*eT*eA*eA*eG*eT*eT*e[5mC]*e[5mC]*eT) | 1.249 | 
25 | CO-6670 (antisense eT*eA*eG*eT*eT*eT*eA*eG*eT*eT*eG*eA*e[5mC]*eT*eG*e[5mC]*eA*eG*eA*eG) | 1.157 | 
26 | CO-7154 (antisense eA*e[5mC]*e[5mC]*eT*eT*dA*dG*eG*dA*dG*eG*dA*dT*eT*dA*dT*eT*dT*dA*eA*e[5mC]*e[5mC]*eT*e[5mC]) | 1.274 | 
27 | CO-7066 (eT*e[5mC]*eT*eG*eG*lA*eA*eA*eA*eT*lA*eA*eT*eG*e[5mC]*l[5mC]*eT*eT*eT*e[5mC]; antisense) | 1.2 | 
28 | CO-4498 (antisense eG*eT*e[5mC]*e[5mC]*e[5mC]*eT*eG*eT*eG*eG*eT*eT*eA*e[5mC]*e[5mC]*eT*eA*eA*eA*eG) | 0.934 | 
29 | CO-7041 (antisense eG*eT*e[5mC]*eA*eA*eG*eA*eGeG*eA*eA*eA*eG*eA*eA*e[5mC]*eT*eG*eG*e[5mC]) | 1.15 | 
30 | CO-7054 (antisense eA*e[5mC]*e[5mC]*e[5mC]*e[5mC]*d[5mC]*d[5mC]*dT*d[5mC]*dA*d[5mC]*d[5mC]*dT*dT*dG*eG*eT*eT*e[5mC]*e[5mC]) | 1.323 | 
31 | CO-7114 (eG*eT*eG*eT*eT*eT*dT*dG*d[5mC]*dT*dT*dG*dG*dT*d[5mC]*dA*eA*eG*eA*eG*eG*eA; antisense) | 1.47 | 
32 | CO-4049 (antisense eG*eT*e[5mC]*eT*e[5mC]*e[5mC]*eA*e[5mC]*eA*eA*eA*eA*e[5mC]*eT*e[5mC]*eT*eA*eT*eA*eG) | 0.889 | 
33 | CO-4012 (antisense eG*eA*eA*e[5mC]*eT*eA*e[5mC]*eA*e[5mC]*e[5mC]*eG*eA*e[5mC]*eT*eT*eT*eA*eT*e[5mC]*eT) | 1.15 | 
34 | CO-6989 (antisense eT*eG*lG*eA*lT*eG*lT*eA*lG*eA*lT*eG*lA*eA*lT*eG*lG*e[5mC]*eA*eA) | 1.469 | 
35 | CO-7163 (antisense e[5mC]*eA*eG*eA*e[5mC]*eA*eT*eG*eA*eT*eG*eT*eG*eG*eA*eG*eG*eT*eG*eG) | 1.308 | 
36 | CO-6975 (antisense e[5mC]*eT*eG*eA*eA*eG*eT*eG*eG*eA*eG*eG*eT*eG*eG*eT*eG*eG*eA*eA) | 1.34 | 
37 | CO-4036 (antisense eG*e[5mC]*eA*eA*eA*eT*eA*eG*eA*eT*eA*eA*eT*eG*eT*eT*e[5mC]*eT*eT*eG) | 1.235 | 
38 | CO-7040 (antisense eA*eA*eG*eA*eG*eG*eA*eA*eA*eG*eA*eA*e[5mC]*eT*eG*eG*e[5mC]*e[5mC]*eG*eG) | 1.267 | 
39 | CO-11206 (antisense eT*eGeT*eT*eTeT*eG*e[5mC]eT*eT*eGeG*eT*e[5mC]eA*eA*eGeA*eG*eG) |  | ABCB11 FC mRNA (5 μM ASO vs. untreated): 1.02 fold change
40 | CO-7091 (eA*e[5mC]*e[5mC]*l[5mC]*e[5mC]*l[5mC]*e[5mC]*lT*e[5mC]*lA*e[5mC]*l[5mC]*eT*lT*eG*lG*eT*lT*e[5mC]*e[5mC]; antisense) | 1.164 | 
41 | CO-4037 (antisense eG*eG*eG*eA*e[5mC]*eA*eT*eT*eG*eA*eT*e[5mC]*e[5mC]*eT*eT*eA*eG*eG*e[5mC]*eA) | 0.697 | 
42 | CO-7023 (antisense e[5mC]*eT*eT*eA*eT*e[5mC]*eT*eG*eG*eA*eA*eA*eA*eT*eA*eA*eT*eG*e[5mC]*e[5mC]) | 1.338 | 
43 | CO-11215 (antisense eG*eT*lG*eGlA*eG*l[5mC]*eAlA*eA*l[5mC]*eTlA*eG*lG*e[5mC]lA*e[5mC]*eT*eG) |  | ABCB11 FC mRNA (5 μM ASO vs. untreated): 2.68 fold change
44 | CO-4014 (antisense eG*eA*eT*e[5mC]*eA*e[5mC]*eA*eA*eA*eT*eT*e[5mC]*eT*eA*e[5mC]*e[5mC]*e[5mC]*eT*eT*eG) | 1.003 | 
45 | CO-11199 (antisense eT*eG*eT*eTeTeTeG*e[5mC]*eT*eT*eG*eG*eT*e[5mC]eAeAeG*eA*eG*eG) |  | ABCB11 FC mRNA (5 μM ASO vs. untreated): 0.97 fold change
